For 13 compounds, IC50 and Ratio IC50 results are on record in ChEMBL document CHEMBL4190308, “Drifting of heme-coordinating group in imidazolylmethylxanthones leading to improved selective inhibition of CYP11B1” (Eur J Med Chem, 2017).

The target of test [1] is T1, Cytochrome P450 11B2, mitochondrial (Homo sapiens, UniProt P19099).
T1 sequence (P19099 whole entry): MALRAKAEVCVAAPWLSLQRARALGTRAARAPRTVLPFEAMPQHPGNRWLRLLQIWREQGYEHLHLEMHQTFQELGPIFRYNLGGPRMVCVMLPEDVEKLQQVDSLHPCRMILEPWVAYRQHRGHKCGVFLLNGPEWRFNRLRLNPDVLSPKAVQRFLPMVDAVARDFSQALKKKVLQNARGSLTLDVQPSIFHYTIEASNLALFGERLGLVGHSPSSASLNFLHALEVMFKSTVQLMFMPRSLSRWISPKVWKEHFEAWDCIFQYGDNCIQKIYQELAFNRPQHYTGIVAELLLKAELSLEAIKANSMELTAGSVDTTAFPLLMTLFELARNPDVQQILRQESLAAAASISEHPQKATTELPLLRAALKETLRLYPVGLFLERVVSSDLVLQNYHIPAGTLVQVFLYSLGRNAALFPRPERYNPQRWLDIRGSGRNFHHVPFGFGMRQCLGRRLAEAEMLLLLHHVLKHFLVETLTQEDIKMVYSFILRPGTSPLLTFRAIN
The experiment in a line: Inhibition of human CYP11B2 expressed in hamster V79MZh cells using [1,2-3H]-11-deoxycorticosterone as substrate after 30 mins by HPTLC analysis. In kind it is cell-based.

The target of test [2] is T2, Cytochrome P450 11B1, mitochondrial (Homo sapiens, UniProt P15538).
T2 sequence (P15538 whole entry): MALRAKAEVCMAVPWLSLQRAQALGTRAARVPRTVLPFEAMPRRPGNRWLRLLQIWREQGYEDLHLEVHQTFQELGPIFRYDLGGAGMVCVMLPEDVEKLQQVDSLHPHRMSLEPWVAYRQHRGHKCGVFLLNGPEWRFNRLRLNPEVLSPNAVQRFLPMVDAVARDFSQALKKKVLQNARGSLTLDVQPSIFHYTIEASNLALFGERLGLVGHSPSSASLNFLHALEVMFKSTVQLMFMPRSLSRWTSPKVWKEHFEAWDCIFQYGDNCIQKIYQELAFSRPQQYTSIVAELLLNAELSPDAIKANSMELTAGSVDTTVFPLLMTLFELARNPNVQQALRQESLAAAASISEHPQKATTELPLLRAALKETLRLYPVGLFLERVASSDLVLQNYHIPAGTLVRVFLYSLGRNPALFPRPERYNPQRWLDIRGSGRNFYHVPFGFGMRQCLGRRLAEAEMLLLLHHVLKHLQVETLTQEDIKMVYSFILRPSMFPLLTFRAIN
The experiment in a line: Inhibition of human CYP11B1 expressed in hamster V79MZh cells using [1,2-3H]-11-deoxycorticosterone as substrate after 6 hrs by HPTLC analysis. It counts as cell-based.

Test [3] is filed under the species Homo sapiens. Kind of test: Selectivity index, ratio of IC50 for human CYP11B2 to IC50 for human CYP11B1.

The structures appear in SMILES notation. pIC50: −log10 of the molar value.

In general, pIC50 refers to the IC50 on a negative log10 scale, so that one unit is a factor of ten. Lower therefore signals a high IC50. With `O=c1c2ccc(Cn3ccnc3)cc2oc2cc(OC3CCCC3)ccc12`, the results for the pIC50 in test [1] and in test [2] were 7.69 and 8.24, respectively. The Ratio IC50 in test [3] is 3.5.

As for `O=c1c2ccc(Br)cc2oc2cc(Cn3ccnc3)ccc12`, the values for the pIC50 in test [1] and in test [2] were 7.35 and 7.94, respectively. Also, in test [3], the Ratio IC50 was found to be 3.9.

In the case of `O=c1c2ccc(Cn3ccnc3)cc2oc2cc(Oc3ccccc3)ccc12`, the pIC50 in test [1] is 7.58; in test [2] it was 8.19. Besides, in test [3], the Ratio IC50 was found to be 4.

With `O=c1c2ccc(Cn3ccnc3)cc2oc2cc(OCC3CC3)ccc12`, the pIC50 in test [1] is 7.65; in test [2] it was 8.33. Further, in test [3], the Ratio IC50 was determined as 4.7.

`O=c1c2ccc(Cn3ccnc3)cc2oc2cc([N+](=O)[O-])ccc12`: the pIC50 in test [1] is 6.87; in test [2], 7.72. Moreover, the Ratio IC50 in test [3] was determined as 7.

On to `O=c1c2ccccc2oc2cc(Cn3ccnc3)ccc12`, for which the figures for the pIC50 in test [1] and in test [2] were 6.46 and 7.15, respectively. In addition, in test [3], the Ratio IC50 was determined as 4.8.

`COc1ccc2c(=O)c3ccc(Cn4ccnc4)cc3oc2c1`: the pIC50 in test [1] was 7.34; in test [2] it was 7.81. Also, the Ratio IC50 in test [3] was found to be 2.9.

On to `O=c1c2ccccc2oc2ccc(Cn3ccnc3)cc12`, for which the pIC50 was 5.94 in test [1] and 6.33 in test [2]. For the same compound, the Ratio IC50 in test [3] turned out to be 2.5.

For the compound `O=c1c2ccc(F)cc2oc2cc(Cn3ccnc3)ccc12`, the pIC50 in test [1] was 7.09; in test [2], 7.91. Also, the Ratio IC50 in test [3] was 6.7.

For `CC(C)Oc1ccc2c(=O)c3ccc(Cn4ccnc4)cc3oc2c1`, the pIC50 is 7.78 in test [1] and 8.39 in test [2]. The Ratio IC50 in test [3] turned out to be 4.

Consider `O=c1c2ccccc2oc2c(Cn3ccnc3)cccc12`, for which the pIC50 in test [1] was 7.36; in test [2] it was 7.82. The Ratio IC50 in test [3] came to 2.9.

As for `O=c1c2ccc(Cl)cc2oc2cc(Cn3ccnc3)ccc12`, the pIC50 in test [1] is 7.02; in test [2] it was 8.18. In test [3], the Ratio IC50 is 14.4.

With `O=c1c2ccccc2oc2cccc(Cn3ccnc3)c12`, the values for the pIC50 in test [1] and in test [2] were 6.94 and 7.00, respectively. Besides, in test [3], the Ratio IC50 turned out to be 1.2.
